Measurements as given in patent publication US6417362B1, “Nitrogenous heterocyclic compounds and hyperlipemia remedy containing the same” (Meiji Seika Kaisha, Ltd., priority 1997, dated 2002).

How the values were obtained:
[1] = test system: biosynthesis of triglycerides in cell strain HepG2 derived from human hepatoma; test: Inhibitory activity against biosynthesis of triglycerides (14C-acetic acid incorporation); type: cell-based; details: HepG2 cells, test compound at final concentration of 3 μM
Protocol: Inhibitory activity against biosynthesis of triglycerides The inhibitory activity of the compounds according to the present invention against the biosynthesis of triglycerides were studied using cell strain HepG2 derived from human hepatoma.
The test was carried out by the method of Nagata et al. (Biochem. Pharmacol., 40, 843 (1990)) and the method of Furukawa et al. (J. Biol. Chem., 267, 22630 (1992)) which had been partly modified. Specifically, HepG2 cells were cultivated in a Dulbecco's modified Eagle's medium (DMEM), containing 10% fetal calf serum (FCS), 100 units/ml penicillin, and 100 μg/ml streptomycin, placed in 96-well plates. Thereafter, the medium was replaced with DMEM containing 1% bovine serum albumin, and the test compound was simultaneously added to a final concentration of 3 μM or was not added, followed by cultivation. Three hr after the replacement of the medium, ^14C-acetic acid was added to a final concentration of 1 mM, followed by cultivation for additional 4 hr. The cells were washed with a phosphate buffer (pH 7.5) containing 150 mM sodium chloride. Thereafter, lipid within the cells was extracted with n-butanol. After the extraction, the extract was evaporated to dryness under a nitrogen gas stream. The residue was dissolved in a small amount of chloroform. The solution was developed in thin-layer chromatography (developing solvent petroleum ether:diethyl ether:acetic acid=90:15:3), and a ^14C-triglyceride fraction was isolated. The amount of […] produced was then quantitatively determined with a liquid scintillation counter (Beckman, LS-6500).
The inhibition (%) of the biosynthesis of triglycerides was calculated by the following equation:
Inhibition (%) of biosynthesis of triglycerides={1-(amount of ^14C-triglycerides produced in the presence of drug)/(amount of ^14C-triglycerides produced in the absence of drug)}×100.

[2] = test system: secretion of apolipoprotein B in cell strain HepG2 derived from hepatoma; test: Inhibitory activity against secretion of apolipoprotein B (sandwich ELISA); type: cell-based; details: Homo sapiens; HepG2 cells, test compound at final concentration of 3 μM
Protocol: Inhibitory activity against secretion of apolipoprotein B
The inhibitory activity of the compounds according to the present invention against the secretion of apolipoprotein B was studied using cell strain HepG2 derived from hepatoma.
The test was carried out by the method of Nagata et al. (Biochem. Pharmacol., 40, 843 (1990)) and the method of Furukawa et al. (J. Biol. Chem., 267, 22630 (1992)) which had been partly modified. Specifically, HepG2 cells were cultivated in a Dulbecco's modified Eagle's medium (DMEM), containing 10% fetal calf serum (FCS), 100 units/ml penicillin, and 100 μg/ml streptomycin, placed in 96-well plates. Thereafter, the medium was replaced with DMEM containing 1% bovine serum albumin, and the test compound was simultaneously added to a final concentration of 3 μM or not added, followed by cultivation. Three hr after the replacement of the medium, acetic acid was added to a final concentration of 1 mM, followed by cultivation for additional 4 hr. The amount of apolipoprotein B secreted in the supernatant of the culture thus obtained was quantitatively determined by the sandwich ELISA method. In this case, goat anti-human apolipoprotein B polyclonal antibody (CHEMICON) was used as a primary antibody, and mouse anti-human apolipoprotein B monoclonal antibody peroxidase conjugate (BIOSYS) was used as a secondary antibody.
The inhibition (%) against the secretion of apolipoprotein B was calculated by the following equation:
Inhibition (%) of secretion of apolipoprotein B={1-(amount of apolipoprotein B secreted in the presence of drug)/(amount of apolipoprotein B secreted in the absence of drug)}×100

ddY mice (male) = test: Acute toxicity test in mice; type: in vivo; details: orally administered 200 mg/kg, observed for 8 days
Protocol: (§1) An acute toxicity test was carried out using mice and rats by a conventional method.

wistar rats (male) = test: Acute toxicity test in rats; type: in vivo; details: orally administered 200 mg/kg, observed for 8 days
Protocol: as §1

Row | Compound | inhibition at 3 µM [1] | inhibition at 3 µM [2] | change in general states, such as reduction in body weight (ddY mice (male)) | survival in acute toxicity test (ddY mice (male)) | change in general states, such as reduction in body weight (wistar rats (male)) | survival in acute toxicity test (wistar rats (male))
1 | CC(C)=CCC/C(C)=C/CC/C(C)=C/CN1CCN(c2ccc3c(c2)C(=O)N(C2CCCCC2)C3)CC1 [Example 5, 2-Cyclohexyl-2,3-dihydro-6-[4-(trans,trans-farnesyl)piperazin-1-yl]-1H-isoindol-1-one] | 90% | 56% |  |  |  | 
2 | O=C1c2cc(N3CCN(CCC(c4ccccc4)c4ccccc4)CC3)ccc2CN1C1CCCCC1 [Example 8, 2-Cyclohexyl-2,3-dihydro-6-[4-(3,3-diphenyl-1-propyl)piperazin-1-yl]-1H-isoindol-1-one] | 79% | 70% | any change in general states, such as a reduction in body weight, did not occur | survived | any change in general states, such as a reduction in body weight, did not occur | survived
3 | CC(C)(C)OC(=O)N1CCN(c2ccc3c(c2)C(=O)N(C2CCCCC2)C3)CC1 [Example 30, 6-[4-(t-Butoxycarbonyl)piperazin-1-yl]-2-cyclo-hexyl-2,3-dihydro-1H-isoindol-1-one] | 89% | 68% |  |  |  | 
4 | O=C1c2cc(N3CCN(CCC(c4ccccc4)c4ccccc4)CC3)ccc2CCN1C1CCCCC1 [Example 68, 2-Cyclohexyl-7-[4-(3,3-diphenyl-1-propyl)-piperazin-1-yl]-3,4-dihydro-2H-isoquinolin-1-one] | 64% | 61% |  |  |  | 
